Values joined by “and” are separate entries in the source; they are usually repeats but may differ in a detail not shown here. Equal values may be shown once. Read-outs that look alike come from different tables or passages of the source.
Experiments:
VEGFA = assay: Serum angiogenesis marker, multiplex bead-based immunoassay (LEGENDplex); format: in vivo, human; parameters: VEGF: unit not given here; settings: for VEGF: serum, duplicate wells
[1] = system: colorectal liver metastasis; settings: cited from earlier work; for Survival: ref 16 (supplementary references)
[2] = system: VEGFA, ANG1/2, EGF, PECAM1/CD31; assay: Serum angiogenic markers overall, before vs after ITPP; format: in vivo, human
Experimental: Serum angiogenesis markers were quantified by multiplex bead-based immunoassays following provided instructions (LEGENDplex™, Biolegend, San Diego, CA/USA). For biochemical markers, the percentage change comparing before (day 1 0 h) with after (last day 9 h) ITPP treatment was calculated.

CEA, AFP, CA19-9 = assay: Circulatory tumor-specific markers before vs after ITPP; format: in vivo, human; settings: for Tumor marker AFP / Tumor marker CEA: individual patients
Text: Load the raw data of the tumor marker measurements, calculate fold changes (FC) and percentage changes comparing measurments per patient before and after ITPP treatment.

[3] = parameters: method as in NormOxys phase I clinical trial; settings: ref NormOxys phase I clinical trial, cited from earlier work
[4] = system: target lesions of PDAC, CRLM, CCA and HCC; assay: Morphological radiological response, MRI, RECIST 1.1; format: in vivo, human
Experimental: Radiological assessment, consisting of abdominal MRI and FDG-PET-CT, was performed before ITPP administration and after the 3-week treatment course. Where possible, radiological re-evaluation was performed after 3–6 cycles of chemotherapy. Radiological responses were evaluated according to the RECIST 1.1 criteria[56] for MRI and EORTC criteria[57] for FDG-PET-CT imaging.
Then first calculate the sum of diameters (DM) and SUV-activities of radiological target lesions before ITPP (sum_pre), after ITPP (sum_post) and after subsequent chemotherapy (sum_chemo) for assessment of morphological RECIST1.1 (diameter) and metabolical EORTC (SUV activiy) responses.
Patient 1 (dropout after only 2 infusions and subsequent death due to rapid oncological progression) is excluded for radiological assessment due to no follow up imaging available.
In a second step, we calculate percent changes (PC) of diameter and SUV activity between before ITPP, after ITPP and after chemotherapy.

[5] = of 22 patients with elevated markers, under ITPP
[6] = after ITPP monotherapy, 27 patients assessed
[7] = after chemotherapy subsequent to ITPP, 20 patients

## O=P1(O)OC2C3OP(=O)(O)OP(=O)(O)OC3C3OP(=O)(O)OP(=O)(O)OC3C2OP(=O)(O)O1 (stereo not drawn) [ITPP, Myo-inositol trispyrophosphate]
VEGFA; following ITPP treatment, 27 patients
  Share of patients with reduced VEGFA: 44.4%
VEGFA; Patient 25, Cohort 8, PDAC, Day 3 post
  VEGF: 30.91
VEGFA; Patient 25, Cohort 8, PDAC, Day 9 post
  VEGF: 33.24 and 35.03
VEGFA; Patient 26, Cohort 8, PDAC, Day 3 post
  VEGF: 5.98 and 4.62
VEGFA; Patient 26, Cohort 8, PDAC, Day 9 post
  VEGF: 11.09 and 13.08
VEGFA; Patient 27, Cohort 8, CCC, Day 3 post
  VEGF: 10.87 and 8.9
VEGFA; Patient 27, Cohort 8, CCC, Day 9 post
  VEGF: 8.12 and 8.9
VEGFA; Patient 28, Cohort 8, CRLM, Day 3 post
  VEGF: 2.84
VEGFA; Patient 28, Cohort 8, CRLM, Day 9 post
  VEGF: 2.84
[1]; FOLFOX combined with ITPP, 10 days, five times each on alternate days
  Survival: 153 days
[1]; FOLFOX given following ITPP treatment
  Survival: 152 days
[1]; ITPP alone
  Survival: 65.5 days
[1]; syngeneic mouse model of colorectal liver metastasis, 17 (supplementary references)
  Extension of survival: 60%
[2]
  Share of patients with decreases in angiogenic markers: ~60%
CEA, AFP, CA19-9; CEA, AFP, CA19-9
  Patients with tumor markers not elevated: 5/27
CEA, AFP, CA19-9; Day 1 pre (baseline before ITPP)
  Tumor marker AFP: 1572 µg/L and 11.2 µg/L and 270600 µg/L
CEA, AFP, CA19-9; Day 1 pre (baseline before ITPP), ITPP cohort 2
  Tumor marker CEA: 2.8 µg/L
CEA, AFP, CA19-9; Day 1 pre (baseline before ITPP), ITPP cohort 3
  Tumor marker CEA: 169.8 µg/L
CEA, AFP, CA19-9; Day 1 pre (baseline before ITPP), ITPP cohort 6
  Tumor marker CEA: 3.2 µg/L and 1 µg/L and 291.6 µg/L
CEA, AFP, CA19-9; Day 1 pre (baseline before ITPP), ITPP cohort 7
  Tumor marker CEA: 2205 µg/L and 2068 µg/L
CEA, AFP, CA19-9; Day 1 pre (baseline before ITPP), ITPP cohort 8
  Tumor marker CEA: 7058 µg/L
CEA, AFP, CA19-9; Day 3 post
  Tumor marker AFP: 1167 µg/L and 11.2 µg/L
CEA, AFP, CA19-9; Day 3 post, ITPP cohort 2
  Tumor marker CEA: 2.9 µg/L
CEA, AFP, CA19-9; Day 3 post, ITPP cohort 3
  Tumor marker CEA: 165.1 µg/L
CEA, AFP, CA19-9; Day 3 post, ITPP cohort 6
  Tumor marker CEA: 3.2 µg/L and 2.3 µg/L and 300.1 µg/L
CEA, AFP, CA19-9; Day 3 post, ITPP cohort 7
  Tumor marker CEA: 2190 µg/L and 2209 µg/L
CEA, AFP, CA19-9; Day 3 post, ITPP cohort 8
  Tumor marker CEA: 7145 µg/L
CEA, AFP, CA19-9; Day 9 post
  Tumor marker AFP: 1017 µg/L and 5.1 µg/L and 204800 µg/L
CEA, AFP, CA19-9; Day 9 post, ITPP cohort 2
  Tumor marker CEA: 2.9 µg/L
CEA, AFP, CA19-9; Day 9 post, ITPP cohort 3
  Tumor marker CEA: 247.8 µg/L
CEA, AFP, CA19-9; Day 9 post, ITPP cohort 6
  Tumor marker CEA: 4.6 µg/L and 1 µg/L and 451 µg/L
CEA, AFP, CA19-9; Day 9 post, ITPP cohort 7
  Tumor marker CEA: 2055 µg/L and 3058 µg/L
CEA, AFP, CA19-9; Day 9 post, ITPP cohort 8
  Tumor marker CEA: 7626 µg/L
CEA, AFP, CA19-9; [5]
  Patients with a decrease in tumor marker levels: 11
  Patients with an increase in tumor marker levels: 11
[3]; ITPP-treated group, 750 to 5600 mg/m2, intravenous infusion during 4 h
  Subjects with treatment-emerged adverse effects (TEAEs): 9/24
[3]
  Dose well tolerated in unaffected volunteers: 5600 mg/m2
  Serious adverse effects or deaths associated with TEAEs: No serious adverse effects (SAEs) or deaths
[4]; CCA, after ITPP
  Median change in target lesion size, RECIST: 0.88%
[4]; CCA, after chemotherapy
  Median change in target lesion size, RECIST: −18.18%
[4]; CRLM, after ITPP
  Median change in target lesion size, RECIST: 6.67%
[4]; CRLM, after chemotherapy
  Median change in target lesion size, RECIST: −3.12%
[4]; HCC, after ITPP
  Median change in target lesion size, RECIST: 0.81%
[4]; HCC, after chemotherapy
  Median change in target lesion size, RECIST: −30.46%
[4]; ITPP monotherapy
  Share of patients with SD (morphological disease stabilization): 52%
[4]; PDAC, after ITPP
  Median change in target lesion size, RECIST: 12.16%
[4]; PDAC, after chemotherapy
  Median change in target lesion size, RECIST: 0%
[4]; [6]
  Patients with progression (PD), RECIST1.1: 11
  Patients with stable disease (SD), RECIST1.1: 14
[4]; [7]
  Patients with PD, RECIST: 6
  Patients with SD, RECIST: 12
